14 compounds from PubChem BioAssay (NCI) can be followed below.

The structures appear in SMILES notation. Several values for one entry are separate records, joined by “and”; a condition that tells them apart may be missing. Identical values can stand only once.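 96-well plates; 48 h exposure; 5 concentrations. Endpoints by linear interpolation between flanking doses. Not reached: highest tested concentration assigned. Here, GI50 denotes the concentration required for 50% inhibition of growth. TGI: total growth inhibition.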

Some test systems named below: SK-MEL-5 melanoma; SK-OV-3 ovarian; HCC-2998 colon; OVCAR-4 ovarian; RPMI-8226 leukemia; CAKI-1 renal; A549 NSCLC; HOP-92 NSCLC; COLO 205 colon.
Holding throughout (assay): DTP human tumour cell line panel, 48 h

For the compound `CCCCCCCCCCCOC(=S)NC(C)C`, the TGI (commonly the concentration at which net growth stops) came to 31.2 µM with SK-MEL-5 melanoma; 49.6 µM in the test on SK-OV-3 ovarian; 31.1 µM in the test with HCC-2998 colon; 52 µM in the test on OVCAR-4 ovarian; 33.2 µM with RPMI-8226 leukemia; 39.9 µM in the test with CAKI-1 renal. In addition, the TGI is 51.1 µM with A549 NSCLC and 32.2 µM in the test with HOP-92 NSCLC.

For the compound `Nc1nc(CCC(=O)Nc2cccc(C(F)(F)F)c2)cc(-c2cccc3ccccc23)n1`, the TGI in the test on SK-MEL-5 melanoma, in the test with SK-OV-3 ovarian, in the test with COLO 205 colon, in the test on HCC-2998 colon, with OVCAR-4 ovarian and in the test on CAKI-1 renal was more than 100 µM throughout. Further, the TGI in the test on A549 NSCLC is more than 100 µM.

In the case of `CC1=CCC[C@@]2(C)C(CC[C@@H]2C(C)/C=C/C(C)C)c2ccc(cc2C(=O)O)C[C@@H](O)CC1` (some centres not stated), the total growth inhibition concentration (TGI) is 12.5 µM in the test with SK-MEL-5 melanoma; 32.3 µM with SK-OV-3 ovarian; 23.5 µM in the test with HCC-2998 colon; 25.6 µM with OVCAR-4 ovarian; 19.7 µM in the test with RPMI-8226 leukemia; 32.9 µM with CAKI-1 renal. Besides, the results for the TGI in the test with A549 NSCLC and in the test with HOP-92 NSCLC were 20.3 µM and 28.9 µM, respectively.

On to `Cc1ccc(C)c(NC(=O)C(=O)CC(=O)C2CCOC2=O)c1` (configuration not stated), for which the TGI in the test with SK-MEL-5 melanoma, with SK-OV-3 ovarian, in the test on COLO 205 colon, in the test with OVCAR-4 ovarian, in the test on RPMI-8226 leukemia and in the test with CAKI-1 renal was more than 100 µM in each case. The TGI in the test on A549 NSCLC and in the test with HOP-92 NSCLC was more than 100 µM in each case.

On to `CCC[CH2][Sn]([CH2]CCC)([O]C(=O)c1c(F)cccc1F)[O]C(=O)c1c(F)cccc1F`, for which the GI50 (in general, the concentration that inhibits growth by half) with SK-MEL-5 melanoma is 1.24 µM; in the test on SK-OV-3 ovarian, 1.82 µM; with COLO 205 colon, 0.574 µM; with HCC-2998 colon, 1.18 µM; in the test with OVCAR-4 ovarian, 1.28 µM; with CAKI-1 renal, 0.38 µM. Further, the values for the GI50 with A549 NSCLC and in the test with HOP-92 NSCLC were 3.12 µM and 0.44 µM, respectively. Also, the TGI in the test on SK-MEL-5 melanoma was 2.52 µM; in the test on SK-OV-3 ovarian it was 3.24 µM; with COLO 205 colon it was 1.74 µM; with HCC-2998 colon it was 2.41 µM; with OVCAR-4 ovarian, 2.55 µM; with CAKI-1 renal it was 1.7 µM. The TGI with A549 NSCLC is 11 µM; with HOP-92 NSCLC, 1.81 µM.

As to `CC1=CC2CC(C)=C(CC[C@]3(C)CC[C@H]([C@@H](C)C(=O)O)OO3)C(C)(C)C2CC1` (some centres not stated), the TGI turned out to be 2.52 µM in the test on SK-MEL-5 melanoma; 3.68 µM in the test on SK-OV-3 ovarian; 1.36 µM in the test on COLO 205 colon; 0.818 µM with HCC-2998 colon; 0.971 µM in the test with OVCAR-4 ovarian; 2.76 µM with CAKI-1 renal. Also, the TGI with A549 NSCLC stood at 1.06 µM; in the test with HOP-92 NSCLC, 0.369 µM.

In the case of `COc1cc(CCc2cccnc2)cc(OC)c1OC`, the TGI with SK-MEL-5 melanoma, with COLO 205 colon, in the test on OVCAR-4 ovarian, in the test on RPMI-8226 leukemia, with CAKI-1 renal and with A549 NSCLC was more than 100 µM each time. In addition, in the test on HOP-92 NSCLC, the TGI was more than 100 µM.

For the compound `NNC(=S)N/N=C(\CCCC(=O)NCCc1ccccc1)CC(=O)c1ccccc1`, the TGI in the test on SK-MEL-5 melanoma, with COLO 205 colon, in the test on HCC-2998 colon, with OVCAR-4 ovarian, in the test with A549 NSCLC and in the test on HOP-92 NSCLC was more than 100 µM each time.

For `COc1cc(C(=O)OCCCCCCCCCCC[P+](c2ccccc2)(c2ccccc2)c2ccccc2)ccc1O`, the GI50 with SK-OV-3 ovarian is 1.35 µM; in the test on COLO 205 colon, 1.49 µM; in the test with HCC-2998 colon, 0.57 µM; in the test on RPMI-8226 leukemia, 0.2 µM; with CAKI-1 renal, 1.64 µM. Moreover, the TGI in the test on SK-OV-3 ovarian came to 5.5 µM; in the test with COLO 205 colon, 3.06 µM; in the test with HCC-2998 colon it was 1.92 µM; in the test on RPMI-8226 leukemia, 0.942 µM; in the test on CAKI-1 renal, 3.18 µM.

As for `O=C1c2ccccc2C2(O)Nc3cc(O)ccc3C12O` (configuration not stated), the TGI in the test with SK-MEL-5 melanoma, with SK-OV-3 ovarian, in the test on COLO 205 colon, with OVCAR-4 ovarian, with RPMI-8226 leukemia and with CAKI-1 renal was more than 100 µM each time. In addition, the TGI in the test with A549 NSCLC and in the test on HOP-92 NSCLC was more than 100 µM in each case.

With `O=C1OC(=O)c2c1c(-c1ccccc1)cn2-c1ccc(Cl)cc1`, the concentration for total growth inhibition (TGI) in the test with SK-MEL-5 melanoma was 27.9 µM; in the test on SK-OV-3 ovarian, more than 100 µM; with COLO 205 colon, 37.5 µM; in the test on HCC-2998 colon it was more than 100 µM; with RPMI-8226 leukemia it was more than 100 µM; in the test with A549 NSCLC, more than 100 µM. In the test with HOP-92 NSCLC, this compound showed a TGI of more than 100 µM.

For `O=C(O)CN(c1ccccc1)S(=O)(=O)c1ccc(NC(=O)c2ccccc2)cc1`, the TGI in the test with SK-OV-3 ovarian, in the test with COLO 205 colon, in the test with OVCAR-4 ovarian, in the test with RPMI-8226 leukemia, in the test with CAKI-1 renal and with A549 NSCLC was more than 100 µM in each case. Also, in the test on HOP-92 NSCLC, the TGI was more than 100 µM.

Take `CC1[C@@H]2[C@@H](C=C3C4CCC5Cc6nc7c(nc6C[C@@]5(C)C4C[C@H](O)[C@]32CO)CC2CCC3C4=C[C@H]5O[C@@]6(O[C@@](C)(CO)C[C@@H]6O)C(C)[C@@]5(O)[C@]4(C)[C@@H](O)CC3[C@]2(C)C7)O[C@]12CCC(C)(C)O2` (some centres not stated): the GI50 was 0.00864 µM with SK-MEL-5 melanoma; less than 0.000365 µM in the test with SK-OV-3 ovarian; 0.0423 µM in the test with COLO 205 colon; 1.34 µM with HCC-2998 colon; less than 0.000365 µM with RPMI-8226 leukemia; 0.0406 µM in the test with CAKI-1 renal. Further, in the test with A549 NSCLC, the GI50 was 0.00602 µM. In addition, the total growth inhibition concentration (TGI) in the test on SK-MEL-5 melanoma was 0.134 µM and 0.16 µM; in the test with SK-OV-3 ovarian, 0.0991 µM and 0.0224 µM; in the test on COLO 205 colon, 0.566 µM and 0.138 µM; in the test with HCC-2998 colon, 0.39 µM and > 3.65 µM; in the test on CAKI-1 renal it was more than 3.65 µM; with A549 NSCLC, 0.919 µM and > 3.65 µM. Besides, the TGI in the test on HOP-92 NSCLC worked out at 0.084 µM.

For the compound `COC(=O)Cc1cc(OC)c(OC)cc1Br`, the TGI in the test with SK-OV-3 ovarian, with COLO 205 colon, in the test with HCC-2998 colon, in the test on OVCAR-4 ovarian, in the test on RPMI-8226 leukemia and with CAKI-1 renal was more than 100 µM in each case. The TGI in the test with A549 NSCLC and in the test with HOP-92 NSCLC was more than 100 µM in each case.
